Assay results: BindingDB's records for doi:10.7270/Q2930WC4 (n/a, 1995)

Target: Alpha-2 adrenergic receptor (Rattus norvegicus)
Assay: Compound was tested for its binding affinity against Alpha-2 adrenergic receptor

A Ki of 302 nM was found for `CCCN(CCCCCCN1CCC[C@@H]1Cc1ccc(O)c(O)c1)CCc1ccc(O)c(O)c1` in this work.
